Results on eleven compounds are retold here after patent publication EP4603105A1, “PHARMACEUTICAL COMPOSITION CONTAINING CYCLIC COMPOUND HAVING SELECTIVE KRAS INHIBITORY EFFECT AGAINST HRAS AND NRAS” (CHUGAI SEIYAKU KABUSHIKI KAISHA, priority 2022, dated 2024).

Like-named read-outs stand apart in the source and are kept apart here.

Assay [1] has as its system human lung cancer strain NCI-H441. Nature of the assay: NCI-H441 cell proliferation inhibitory activity (CellTiter-Glo, 4 days). The class given is cell-based. The note with it: read-out: NCl-H441 IC50. In short, it runs like this: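 Readout: […] after the ATP-based reagent. Compound: serial dilutions in dimethyl sulfoxide.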
Assay [2] has as its target GDP-bound NRAS wild-type protein (Homo sapiens, UniProt P01111). As to the kind of experiment: Binding to NRAS by surface plasmon resonance (SPR), KD and KD ratio to KRAS. Summed up:
(§1)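 GDP-loaded biotinylated Avi-tag RAS proteins (E. coli-expressed) captured on a Biotin CAPture chip at ~100–300 RU; single-cycle kinetics at 30°C, 100 µL/min, 75 s injections of rising compound concentrations. HBS pH 7.4 running buffer with 1 mM DTT, 10 mM MgCl2, 10 µM GDP, 4% DMSO. KD from 1:1 binding fit.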

In assay [3] the target is GDP-bound KRAS wild-type protein (Homo sapiens, UniProt P01116). Nature of the assay: Binding to KRAS by surface plasmon resonance (SPR), dissociation constant KD. Summed up: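 Each cycle, GDP-bound biotin-Avi RAS was captured (~100–300 RU), compound concentrations were injected low to high for 75 s each at 100 µL/min, then the chip was regenerated. Buffer: HBS pH 7.4, 10 mM MgCl2, 10 µM GDP, 1 mM DTT, 4% DMSO; 30°C. KD from a 1:1 binding model.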
Chain of GDP-bound KRAS wild-type protein (P01116 1-188 isoform P01116-2): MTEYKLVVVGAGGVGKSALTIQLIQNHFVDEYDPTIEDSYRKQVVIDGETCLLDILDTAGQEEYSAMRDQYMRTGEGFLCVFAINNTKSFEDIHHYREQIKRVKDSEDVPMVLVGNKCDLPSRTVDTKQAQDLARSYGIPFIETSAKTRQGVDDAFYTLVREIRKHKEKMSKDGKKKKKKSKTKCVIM

For the next assay, the target named is HRAS wild-type protein (Homo sapiens, UniProt P01112). As to the kind of experiment: Binding to HRAS by surface plasmon resonance (SPR), KD and KD ratio to KRAS. Summed up:
as §1

Setting [4] is: ratio of KD for GDP-bound NRAS wild-type protein to KD for KRAS.
Setting [5] is: ratio of KD for HRAS wild-type protein to KD for KRAS.
Where [6] appears, read: 50% proliferation inhibitory concentration, four days.
Where [7] appears, read: ratio of KD with respect to GDP-bound NRAS wild-type protein to KD with respect to KRAS.
Where [8] appears, read: Single Cycle Kinetics, 1:1 binding model.
Where [9] appears, read: ratio of KD with respect to HRAS wild-type protein to KD with respect to KRAS.

Chain of GDP-bound NRAS wild-type protein (P01111 whole entry): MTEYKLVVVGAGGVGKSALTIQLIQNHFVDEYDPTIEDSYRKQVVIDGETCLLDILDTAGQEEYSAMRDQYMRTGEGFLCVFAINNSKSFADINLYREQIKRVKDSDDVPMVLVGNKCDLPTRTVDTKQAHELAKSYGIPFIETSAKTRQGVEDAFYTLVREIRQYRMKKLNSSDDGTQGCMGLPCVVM
Chain of HRAS wild-type protein (P01112 whole entry): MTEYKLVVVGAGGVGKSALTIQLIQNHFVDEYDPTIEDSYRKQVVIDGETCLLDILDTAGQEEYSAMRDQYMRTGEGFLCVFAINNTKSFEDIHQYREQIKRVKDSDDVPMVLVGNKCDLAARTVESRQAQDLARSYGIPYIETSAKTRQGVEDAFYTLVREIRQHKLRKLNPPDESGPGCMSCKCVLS

In the case of `CC[C@H](C)[C@@H]1NC(=O)[C@H](COC)N(C)C(=O)C[C@@H](C(=O)N2CCCCC2)N(C)C(=O)[C@H](C2CCCC2)N(C)C(=O)C2(CC(C)(C)C2)NC(=O)[C@@H]2C[C@@H](OC(C)C)CN2C(=O)[C@H](CCc2ccc(Cl)c(Cl)c2)NC(=O)CN(C)C(=O)[C@H](Cc2ccc(C(F)(F)F)cc2)N2CC/C=C\C[C@@H](C2=O)N(C)C(=O)CN(C)C1=O` [PP2671], in assay [1] (NCI-H441 cells, 4 days), the IC50 amounted to 26.3 nM. The “NRAS /KRAS” value in assay [2] (setting [4]) was “A (a compound having 10 or more and less than 20 is denoted as A)”. Further, the Kd in assay [3] (1:1 binding model) stood at 0.67 nM. In addition, on HRAS wild-type protein (setting [5]), the “HRAS /KRAS” value is “A (a compound having 10 or more and less than 20 is denoted as A)”.
For `CCOC[C@H]1C(=O)N[C@@H]([C@@H](C)CC)C(=O)N(C)CC(=O)N(C)[C@H]2C/C=C\CCN(C2=O)[C@@H](Cc2ccc(C(F)(F)F)cc2)C(=O)N(C)CC(=O)N[C@@H](CCc2ccc(C(F)(F)F)c(OC)c2)C(=O)N2C[C@@H](C)C[C@H]2C(=O)N(C)C2(CCC2)C(=O)N(C)[C@@H](C2CCCC2)C(=O)N(C)[C@H](C(=O)N(C)C)CC(=O)N1C` [PP2359], the IC50 in assay [1] (NCI-H441 cells, 4 days) was 7.6 nM. Moreover, in assay [2] (setting [4]), the “NRAS /KRAS” value was “A (a compound having 10 or more and less than 20 is denoted as A)”. The compound further returned a Kd in assay [3] (1:1 binding model) of 0.02 nM. For the same compound, on HRAS wild-type protein (setting [5]), the “HRAS /KRAS” value is “B (a compound having 3 or more and less than 10 is denoted as B)”.
On to `CCO[C@@H]1C[C@H]2C(=O)NC3(CCC3)C(=O)N(C)[C@@H](C3CCCC3)C(=O)N(C)[C@H](C(=O)N(C)C)CC(=O)N(C)[C@@H](CC(C)C)C(=O)N[C@@H]([C@@H](C)CC)C(=O)N(C)CC(=O)N(C)[C@H]3C/C(F)=C\CCN(C3=O)[C@@H](Cc3ccc(C)cc3)C(=O)N(C)CC(=O)N[C@@H](CCc3cc(F)c(C(F)(F)F)c(F)c3)C(=O)N2C1` [PP3515], for which the IC50 in assay [1] (NCI-H441 cells, 4 days) came out at 17 nM. The “NRAS /KRAS” value in assay [2] (setting [4]) was “B (a compound having 3 or more and less than 10 is denoted as B)”. The Kd in assay [3] (Single Cycle Kinetics) is 0.28 nM. On HRAS wild-type protein (setting [5]), the “HRAS /KRAS” value is “B (a compound having 3 or more and less than 10 is denoted as B)”.
In the case of `CCC[C@H]1C(=O)N[C@@H]([C@@H](C)CC)C(=O)N(C)CC(=O)N(C)[C@H]2C/C=C\CCN(C2=O)[C@@H](Cc2ccc(C)cc2)C(=O)N(C)CC(=O)N[C@@H](CCc2ccc(C(F)(F)F)c(Cl)c2)C(=O)N2CC3(CC3)C[C@H]2C(=O)NC2(CCC2)C(=O)N(C)[C@@H](C2CCCC2)C(=O)N(C)[C@H](C(=O)N(C)C)CC(=O)N1C` [PP3442], the IC50 in assay [1] (NCI-H441 cells, 4 days) was 7.7 nM. The “NRAS /KRAS” value in assay [2] (setting [4]) is “A (a compound having 10 or more and less than 20 is denoted as A)”. Moreover, binding in assay [3] (Single Cycle Kinetics) was characterised by a dissociation constant (Kd) of 0.083 nM. In addition, the “HRAS /KRAS” value on HRAS wild-type protein (setting [5]) was “B (a compound having 3 or more and less than 10 is denoted as B)”.
With `CCC[C@H]1C(=O)N[C@@H]([C@@H](C)CC)C(=O)N(C)CC(=O)N(C)[C@H]2C/C=C\CCN(C2=O)[C@@H](Cc2ccc(C(F)(F)F)cc2)C(=O)N(C)CC(=O)N[C@@H](CCc2ccc(C(F)(F)F)c(Cl)c2)C(=O)N2CC3(CC3)C[C@H]2C(=O)NC2(CCC2)C(=O)N(C)[C@@H](CC(C)(C)C)C(=O)N(C)[C@H](C(=O)N(C)C)CC(=O)N1C` [PP3418], in assay [1] (NCI-H441 cells, 4 days), the IC50 turned out to be 5.4 nM. The “NRAS /KRAS” value in assay [2] (setting [4]) is “A (a compound having 10 or more and less than 20 is denoted as A)”. Also, in assay [3] (Single Cycle Kinetics), the affinity, expressed as Kd, was 0.041 nM. Further, at HRAS wild-type protein (setting [5]), the “HRAS /KRAS” value was “B (a compound having 3 or more and less than 10 is denoted as B)”.
On to `CCC[C@H]1C(=O)N[C@@H]([C@@H](C)CC)C(=O)N(C)CC(=O)N(C)[C@H]2C/C=C\CCN(C2=O)[C@@H](Cc2ccc(C)cc2)C(=O)N(C)CC(=O)N[C@@H](CCc2ccc(C(F)(F)F)c(OC)c2)C(=O)N2CC3(CC3)C[C@H]2C(=O)NC2(CCC2)C(=O)N(C)[C@@H](C(CC)CC)C(=O)N(C)[C@H](C(=O)N(C)C)CC(=O)N1C` [PP3422], for which, in assay [1] (NCI-H441 cells, 4 days), the IC50 is 8.4 nM. In addition, the “NRAS /KRAS” value in assay [2] (setting [4]) is reported as “AA (a compound having 20 or more is denoted as AA)”. The compound also returned a Kd in assay [3] (Single Cycle Kinetics) of 0.39 nM. For the same compound, on HRAS wild-type protein (setting [5]), the “HRAS /KRAS” value is “A (a compound having 10 or more and less than 20 is denoted as A)”.
With `CCO[C@@H]1C[C@H]2C(=O)NC3(CCC3)C(=O)N(C)[C@@H](C(CC)CC)C(=O)N(C)[C@H](C(=O)N3CCOCC3)CC(=O)N(C)[C@@H](CC)C(=O)N[C@@H]([C@@H](C)CC)C(=O)N(C)CC(=O)N(C)[C@H]3C/C=C\CCN(C3=O)[C@@H](Cc3ccc(C(F)(F)F)cc3)C(=O)N(C)CC(=O)N[C@@H](CCc3cc(F)c(C(F)(F)F)c(F)c3)C(=O)N2C1` [PP1286], the half-maximal inhibitory concentration (IC50) in assay [1] (setting [6]) is 58.8 nM. In addition, in assay [2] (setting [7]), the “NRAS /KRAS” value was “AA (a compound having 20 or more is denoted as AA)”. In assay [3] (setting [8]), this compound returned a Kd of 0.65 nM. Moreover, at HRAS wild-type protein (setting [9]), the “HRAS /KRAS” value is “A (a compound having 10 or more and less than 20 is denoted as A)”.
Take `CCC[C@H]1C(=O)N[C@@H]([C@@H](C)CC)C(=O)N2CCC[C@H]2C(=O)N(C)[C@H]2C/C=C\CCN(C2=O)[C@@H](Cc2ccc(C)cc2)C(=O)N(C)CC(=O)N[C@@H](CCc2ccc(Cl)c(Cl)c2)C(=O)N2C[C@H](OCC)C[C@H]2C(=O)NC2(CC(C)(C)C2)C(=O)N(C)[C@@H](C(CC)CC)C(=O)N(C)[C@H](C(=O)N(C)C)CC(=O)N1C` [PP2638]: in assay [1] (NCI-H441 cells, 4 days), the IC50 is 97 nM. The “NRAS /KRAS” value in assay [2] (setting [4]) is recorded as “AA (a compound having 20 or more is denoted as AA)”. Also, in assay [3] (1:1 binding model), binding was characterised by a dissociation constant (Kd) of 2.5 nM. Also, the “HRAS /KRAS” value on HRAS wild-type protein (setting [5]) is “A (a compound having 10 or more and less than 20 is denoted as A)”.
On to `CCO[C@@H]1C[C@H]2C(=O)NC3(CC(C)(C)C3)C(=O)N(C)[C@@H](C3CCCC3)C(=O)N(C)[C@H](C(=O)N(C)CC)CC(=O)N(C)[C@@H]([C@@H](C)OC)C(=O)N[C@@H]([C@@H](C)CC)C(=O)N3CCC[C@H]3C(=O)N(C)[C@H]3C/C=C\CCN(C3=O)[C@@H](Cc3ccc(C(F)(F)F)cc3)C(=O)N(C)CC(=O)N[C@@H](CCc3ccc(C(F)(F)F)c(Cl)c3)C(=O)N2C1` [PP3174], for which, in assay [1] (NCI-H441 cells, 4 days), the IC50 was found to be 105 nM. Moreover, the “NRAS /KRAS” value in assay [2] (setting [4]) is recorded as “AA (a compound having 20 or more is denoted as AA)”. Besides, the equilibrium dissociation constant (Kd) in assay [3] (Single Cycle Kinetics) worked out at 1.1 nM. Also, the “HRAS /KRAS” value on HRAS wild-type protein (setting [5]) was “A (a compound having 10 or more and less than 20 is denoted as A)”.
With `C=C(C)C[C@H]1C(=O)N(C)[C@H](C(=O)N(C)C)CC(=O)N(C)[C@@H](CCC)C(=O)N[C@@H]([C@@H](C)CC)C(=O)N2CCC[C@H]2C(=O)N(C)[C@H]2C/C=C\CCN(C2=O)[C@@H](Cc2ccc(C(F)(F)F)cc2)C(=O)N(C)CC(=O)N[C@@H](CCc2ccc(C(F)(F)F)c(OC)c2)C(=O)N2C[C@H](OCC)C[C@H]2C(=O)N(C)C2(CCC2)C(=O)N1C` [PP3335], the IC50 in assay [1] (NCI-H441 cells, 4 days) was found to be 90.6 nM. For the same compound, the “NRAS /KRAS” value in assay [2] (setting [4]) is “A (a compound having 10 or more and less than 20 is denoted as A)”. For the same compound, the Kd in assay [3] (Single Cycle Kinetics) turned out to be 2.5 nM. Further, the “HRAS /KRAS” value at HRAS wild-type protein (setting [5]) is “A (a compound having 10 or more and less than 20 is denoted as A)”.
Take `CCO[C@@H]1C[C@H]2C(=O)NC3(CCC3)C(=O)N(C)[C@@H](C3CCCC3)C(=O)N(C)[C@H](C(=O)N(C)C)CC(=O)N(C)[C@@H](CC(C)C)C(=O)N[C@@H]([C@@H](C)CC)C(=O)N(C)CC(=O)N(C)[C@H]3C/C=C\CCN(C3=O)[C@@H](Cc3ccc(C(F)(F)F)cc3)C(=O)N(C)CC(=O)N[C@@H](CCc3cc(F)c(Cl)c(F)c3)C(=O)N2C1` [PP1263]: the IC50 in assay [1] (setting [6]) was 18.9 nM. Further, in assay [2] (setting [7]), the “NRAS /KRAS” value is “A (a compound having 10 or more and less than 20 is denoted as A)”. The compound also displayed a Kd in assay [3] (setting [8]) of 0.23 nM. Besides, the “HRAS /KRAS” value on HRAS wild-type protein (setting [9]) was “A (a compound having 10 or more and less than 20 is denoted as A)”.

By IC50 is commonly meant the point on the concentration scale where inhibition reaches its midpoint. As usually defined, the Kd is the constant that tells how readily two partners part at equilibrium.
